Laboratory results published in the supplement of paper PMC10733146.

Experiments:
Test in all cases: viability relative to DMSO control (fraction); higher = less drug effect (more viable cells)
Details in all cases: 48 h
[1] = system: primary AML patient cells (S012)
Summary of the method: (§1)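 Viability is given as CellTiter-Glo luminescence relative to the median of 16 inner DMSO wells. Fresh or cryopreserved primary mononuclear tumour cells from blood, bone marrow (both Ficoll-isolated) or processed lymph node were plated at 4 × 10^4 cells per well in 384-well plates against five pre-plated compound concentrations, one well each. Incubation lasted 48 h at 37 °C and 5% CO2 in RPMI-1640 with penicillin/streptomycin, L-glutamine and human serum.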

[2] = system: primary T-PLL patient cells (S008)
Summary of the method: as §1

[3] = system: primary AML patient cells (S079)
Summary of the method: as §1

[4] = system: primary AML patient cells (S056)
Summary of the method: as §1

[5] = system: primary FL patient cells (S022)
Summary of the method: as §1

[6] = system: primary AML patient cells (S009)
Summary of the method: as §1

[7] = system: primary AML patient cells (S089)
Summary of the method: as §1

[8] = system: primary AML patient cells (S091)
Summary of the method: as §1

[9] = system: primary MCL patient cells (S053)
Summary of the method: as §1

[10] = system: primary CLL patient cells (S031)
Summary of the method: as §1

[11] = system: primary ALL patient cells (S048)
Summary of the method: as §1

[12] = system: primary MCL patient cells (S068)
Summary of the method: as §1

[13] = system: primary MCL patient cells (S041)
Summary of the method: as §1

[14] = system: primary FL patient cells (S087)
Summary of the method: as §1

[15] = system: primary AML patient cells (S072)
Summary of the method: as §1

[16] = system: primary DLBCL patient cells (S082)
Summary of the method: as §1

[17] = system: primary AML patient cells (S037)
Summary of the method: as §1

[18] = system: primary MCL patient cells (S063)
Summary of the method: as §1

Molecule `CN1CC[C@H](c2c(O)cc(O)c3c(=O)cc(-c4ccccc4Cl)oc23)[C@H](O)C1` [Flavopiridol] has a viability ([1]; 0.0032 µM) of 0.979, a viability ([1]; 0.016 µM) of 0.904 and a viability ([1]; 0.08 µM) of 0.869. For the same molecule, the viability ([1]; 0.4 µM) was 0.151, the viability ([1]; 2 µM) was 0.0418 and the viability ([2]; 0.0032 µM) was 0.953. The viability ([2]; 0.016 µM) was 1.03, the viability ([2]; 0.08 µM) was 0.916 and the viability ([2]; 0.4 µM) was 0.804. It also gave a viability ([2]; 2 µM) of 0.0718, a viability ([3]; 0.0032 µM) of 1.01 and a viability ([3]; 0.016 µM) of 0.979. It also gave a viability ([3]; 0.08 µM) of 0.878, a viability ([3]; 0.4 µM) of 0.112 and a viability ([3]; 2 µM) of 0.0261. For the same molecule, the viability ([4]; 0.0032 µM) was 0.928, the viability ([4]; 0.016 µM) was 0.75 and the viability ([4]; 0.08 µM) was 0.367. The viability ([4]; 0.4 µM) was 0.065, the viability ([4]; 2 µM) was 0.0807 and the viability ([5]; 0.0032 µM) was 1.04. For the same molecule, the viability ([5]; 0.016 µM) was 0.958, the viability ([5]; 0.08 µM) was 0.995 and the viability ([5]; 0.4 µM) was 0.227. For the same molecule, the viability ([5]; 2 µM) was 0.187, the viability ([6]; 0.0032 µM) was 0.95 and the viability ([6]; 0.016 µM) was 0.898. For the same molecule, the viability ([6]; 0.08 µM) was 0.619, the viability ([6]; 0.4 µM) was 0.199 and the viability ([6]; 2 µM) was 0.0899. The viability ([7]; 0.0032 µM) was 0.742, the viability ([7]; 0.016 µM) was 1.01 and the viability ([7]; 0.08 µM) was 0.362. It also gave a viability ([7]; 0.4 µM) of 0.0371, a viability ([7]; 2 µM) of 0.0437 and a viability ([8]; 0.0032 µM) of 0.917. The viability ([8]; 0.016 µM) was 0.921, the viability ([8]; 0.08 µM) was 0.604 and the viability ([8]; 0.4 µM) was 0.113. For the same molecule, the viability ([8]; 2 µM) was 0.0958, the viability ([9]; 0.0032 µM) was 1.02 and the viability ([9]; 0.016 µM) was 0.938. For the same molecule, the viability ([9]; 0.08 µM) was 0.951, the viability ([9]; 0.4 µM) was 0.469 and the viability ([9]; 2 µM) was 0.627. It also gave a viability ([10]; 0.0032 µM) of 1.04, a viability ([10]; 0.016 µM) of 0.914 and a viability ([10]; 0.08 µM) of 0.963. For the same molecule, the viability ([10]; 0.4 µM) was 0.0407, the viability ([10]; 2 µM) was 0.0147 and the viability ([11]; 0.0032 µM) was 0.998. It also gave a viability ([11]; 0.016 µM) of 1, a viability ([11]; 0.08 µM) of 1.1 and a viability ([11]; 0.4 µM) of 0.535. It also gave a viability ([11]; 2 µM) of 0.0207, a viability ([12]; 0.0032 µM) of 0.98 and a viability ([12]; 0.016 µM) of 0.982. It also gave a viability ([12]; 0.08 µM) of 0.82, a viability ([12]; 0.4 µM) of 0.0704 and a viability ([12]; 2 µM) of 0.0301. For the same molecule, the viability ([13]; 0.0032 µM) was 1.01, the viability ([13]; 0.016 µM) was 0.914 and the viability ([13]; 0.08 µM) was 0.892. The viability ([13]; 0.4 µM) was 0.0723, the viability ([13]; 2 µM) was 0.0378 and the viability ([14]; 0.0032 µM) was 0.967. The viability ([14]; 0.016 µM) was 0.91, the viability ([14]; 0.08 µM) was 1 and the viability ([14]; 0.4 µM) was 0.644. For the same molecule, the viability ([14]; 2 µM) was 0.638, the viability ([15]; 0.0032 µM) was 1.17 and the viability ([15]; 0.016 µM) was 1.05. For the same molecule, the viability ([15]; 0.08 µM) was 0.754, the viability ([15]; 0.4 µM) was 0.156 and the viability ([15]; 2 µM) was 0.0607. The viability ([16]; 0.0032 µM) was 1.03, the viability ([16]; 0.016 µM) was 0.977 and the viability ([16]; 0.08 µM) was 1.11. The viability ([16]; 0.4 µM) was 0.103, the viability ([16]; 2 µM) was 0.0254 and the viability ([17]; 0.0032 µM) was 0.979. The viability ([17]; 0.016 µM) was 0.948, the viability ([17]; 0.08 µM) was 0.914 and the viability ([17]; 0.4 µM) was 0.633. It also gave a viability ([17]; 2 µM) of 0.328, a viability ([18]; 0.0032 µM) of 0.987 and a viability ([18]; 0.016 µM) of 0.935. It also gave a viability ([18]; 0.08 µM) of 0.887, a viability ([18]; 0.4 µM) of 0.269 and a viability ([18]; 2 µM) of 0.0178.
